Reference: ChEMBL document CHEMBL1154382, “Preliminary SAR analysis of novel antiproliferative N(6),5'-bis-ureidoadenosine derivatives” (2009)

What was measured:
Format in all cases: functional
Details in all cases: values are per cent of control
[1] = test system: OVCAR-3; experiment: Antiproliferative activity against human OVCAR-3 cells at 10 uM assessed as cell growth inhibition relative to control
[2] = test system: OVCAR-8; experiment: Antiproliferative activity against human OVCAR8 cells at 10 uM assessed as cell growth inhibition relative to control
[3] = test system: SK-OV-3; experiment: Antiproliferative activity against human SKOV3 cells at 10 uM assessed as cell growth inhibition relative to control
[4] = test system: MOLT-4; experiment: Antiproliferative activity against human MOLT4 cells at 10 uM assessed as cell growth inhibition relative to control
[5] = test system: IGROV-1; experiment: Antiproliferative activity against human IGROV1 cells at 10 uM assessed as cell growth inhibition relative to control
[6] = test system: DU-145; experiment: Antiproliferative activity against human DU145 cells at 10 uM assessed as cell growth inhibition relative to control
[7] = test system: BT-549; experiment: Antiproliferative activity against human BT549 cells at 10 uM assessed as cell growth inhibition relative to control
[8] = test system: EKVX; experiment: Antiproliferative activity against human EKVX cells at 10 uM assessed as cell growth inhibition relative to control
[9] = test system: M14; experiment: Antiproliferative activity against human M14 cells at 10 uM assessed as cell growth inhibition relative to control
[10] = test system: HCT-116; experiment: Antiproliferative activity against human HCT116 cells at 10 uM assessed as cell growth inhibition relative to control
[11] = test system: NCI-H522; experiment: Antiproliferative activity against human NCI-H522 cells at 10 uM assessed as cell growth inhibition relative to control
[12] = test system: NCI-H23; experiment: Antiproliferative activity against human NCI-H23 cells at 10 uM assessed as cell growth inhibition relative to control
[13] = test system: SK-MEL-28; experiment: Antiproliferative activity against human SK-MEL-28 cells at 10 uM assessed as cell growth inhibition relative to control
[14] = test system: Malme-3M; experiment: Antiproliferative activity against human MALME-3M cells at 10 uM assessed as cell growth inhibition relative to control
[15] = test system: NCI-H322M; experiment: Antiproliferative activity against human NCI-H322M cells at 10 uM assessed as cell growth inhibition relative to control
[16] = test system: CCRF-CEM; experiment: Antiproliferative activity against human CCRF-CEM cells at 10 uM assessed as cell growth inhibition relative to control
[17] = test system: LOX IMVI; experiment: Antiproliferative activity against human LOXIMVI cells at 10 uM assessed as cell growth inhibition relative to control
[18] = test system: COLO 205; experiment: Antiproliferative activity against human COLO205 cells at 10 uM assessed as cell growth inhibition relative to control
[19] = test system: PC-3; experiment: Antiproliferative activity against human PC3 cells at 10 uM assessed as cell growth inhibition relative to control
[20] = test system: T47D; experiment: Antiproliferative activity against human T47D cells at 10 uM assessed as cell growth inhibition relative to control
[21] = test system: HL-60(TB); experiment: Antiproliferative activity against human HL-60(TB) cells at 10 uM assessed as cell growth inhibition relative to control
[22] = test system: A498; experiment: Antiproliferative activity against human A498 cells at 10 uM assessed as cell growth inhibition relative to control
[23] = test system: UO-31; experiment: Antiproliferative activity against human UO31 cells at 10 uM assessed as cell growth inhibition relative to control
[24] = test system: HOP-92; experiment: Antiproliferative activity against human HOP92 cells at 10 uM assessed as cell growth inhibition relative to control
[25] = test system: HCC 2998; experiment: Antiproliferative activity against human HCC2998 cells at 10 uM assessed as cell growth inhibition relative to control
[26] = test system: TK-10; experiment: Antiproliferative activity against human TK10 cells at 10 uM assessed as cell growth inhibition relative to control
[27] = test system: A549; experiment: Antiproliferative activity against human A549 cells at 10 uM assessed as cell growth inhibition relative to control
[28] = test system: MDA-MB-468; experiment: Antiproliferative activity against human MDA-MB-468 cells at 10 uM assessed as cell growth inhibition relative to control
[29] = test system: NCI-H226; experiment: Antiproliferative activity against human NCI-H226 cells at 10 uM assessed as cell growth inhibition relative to control
[30] = test system: ACHN; experiment: Antiproliferative activity against human ACHN cells at 10 uM assessed as cell growth inhibition relative to control
[31] = test system: UACC-257; experiment: Antiproliferative activity against human UACC257 cells at 10 uM assessed as cell growth inhibition relative to control
[32] = test system: SNB-19; experiment: Antiproliferative activity against human SNB19 cells at 10 uM assessed as cell growth inhibition relative to control
[33] = test system: U-251; experiment: Antiproliferative activity against human U251 cells at 10 uM assessed as cell growth inhibition relative to control
[34] = test system: UACC-62; experiment: Antiproliferative activity against human UACC62 cells at 10 uM assessed as cell growth inhibition relative to control
[35] = test system: K562; experiment: Antiproliferative activity against human K562 cells at 10 uM assessed as cell growth inhibition relative to control
[36] = test system: SF-539; experiment: Antiproliferative activity against human SF539 cells at 10 uM assessed as cell growth inhibition relative to control
[37] = test system: SF-268; experiment: Antiproliferative activity against human SF268 cells at 10 uM assessed as cell growth inhibition relative to control
[38] = test system: HOP-62; experiment: Antiproliferative activity against human HOP62 cells at 10 uM assessed as cell growth inhibition relative to control
[39] = test system: MDA-MB-231; experiment: Antiproliferative activity against human MDA-MB-231 cells at 10 uM assessed as cell growth inhibition relative to control
[40] = test system: OVCAR-5; experiment: Antiproliferative activity against human OVCAR5 cells at 10 uM assessed as cell growth inhibition relative to control
[41] = test system: SW-620; experiment: Antiproliferative activity against human SW620 cells at 10 uM assessed as cell growth inhibition relative to control
[42] = test system: SK-MEL-2; experiment: Antiproliferative activity against human SK-MEL-2 cells at 10 uM assessed as cell growth inhibition relative to control
[43] = test system: 786-0; experiment: Antiproliferative activity against human 786-0 cells at 10 uM assessed as cell growth inhibition relative to control
[44] = test system: SNB-75; experiment: Antiproliferative activity against human SNB75 cells at 10 uM assessed as cell growth inhibition relative to control
[45] = test system: SK-MEL-5; experiment: Antiproliferative activity against human SK-MEL-5 cells at 10 uM assessed as cell growth inhibition relative to control
[46] = Antiproliferative activity against human Hs 578T cells at 10 uM assessed as cell growth inhibition relative to control
[47] = test system: SF-295; experiment: Antiproliferative activity against human SF295 cells at 10 uM assessed as cell growth inhibition relative to control
[48] = test system: NCI-H460; experiment: Antiproliferative activity against human NCI-H460 cells at 10 uM assessed as cell growth inhibition relative to control
[49] = test system: MCF7; experiment: Antiproliferative activity against human MCF7 cells at 10 uM assessed as cell growth inhibition relative to control
[50] = Antiproliferative activity against human […] cells at 10 uM assessed as cell growth inhibition relative to control
[51] = test system: HT-29; experiment: Antiproliferative activity against human HT-29 cells at 10 uM assessed as cell growth inhibition relative to control
[52] = test system: RXF 393; experiment: Antiproliferative activity against human RXF393 cells at 10 uM assessed as cell growth inhibition relative to control
[53] = test system: CAKI-1; experiment: Antiproliferative activity against human Caki1 cells at 10 uM assessed as cell growth inhibition relative to control
[54] = test system: HCT-15; experiment: Antiproliferative activity against human HCT15 cells at 10 uM assessed as cell growth inhibition relative to control
[55] = test system: OVCAR-4; experiment: Antiproliferative activity against human OVCAR4 cells at 10 uM assessed as cell growth inhibition relative to control
[56] = test system: SN12C; experiment: Antiproliferative activity against human SN12C cells at 10 uM assessed as cell growth inhibition relative to control
[57] = test system: KM12; experiment: Antiproliferative activity against human KM12 cells at 10 uM assessed as cell growth inhibition relative to control

Structure (SMILES): CCOC(=O)C=C1[C@@H](O[Si](C)(C)C(C)(C)C)[C@H](n2cnc3c(N)ncnc32)O[C@@H]1CNC(=O)NC
- growth, % of control at 10 µM [1]: 65%
- growth, % of control at 10 µM [2]: 104%
- growth, % of control at 10 µM [3]: 102%
- growth, % of control at 10 µM [4]: 75%
- growth, % of control at 10 µM [5]: 46%
- growth, % of control at 10 µM [6]: 71%
- growth, % of control at 10 µM [7]: 80%
- growth, % of control at 10 µM [8]: 86%
- growth, % of control at 10 µM [9]: 87%
- growth, % of control at 10 µM [10]: 52%
- growth, % of control at 10 µM [11]: 74%
- growth, % of control at 10 µM [12]: 99%
- growth, % of control at 10 µM [13]: 111%
- growth, % of control at 10 µM [14]: 105%
- growth, % of control at 10 µM [15]: 81%
- growth, % of control at 10 µM [16]: 119%
- growth, % of control at 10 µM [17]: 74%
- growth, % of control at 10 µM [18]: 76%
- growth, % of control at 10 µM [19]: 93%
- growth, % of control at 10 µM [20]: 79%
- growth, % of control at 10 µM [21]: 76%
- growth, % of control at 10 µM [22]: 78%
- growth, % of control at 10 µM [23]: 76%
- growth, % of control at 10 µM [24]: 90%
- growth, % of control at 10 µM [25]: 71%
- growth, % of control at 10 µM [26]: 85%
- growth, % of control at 10 µM [27]: 100%
- growth, % of control at 10 µM [28]: 71%
- growth, % of control at 10 µM [29]: 90%
- growth, % of control at 10 µM [30]: 70%
- growth, % of control at 10 µM [31]: 95%
- growth, % of control at 10 µM [32]: 88%
- growth, % of control at 10 µM [33]: 53%
- growth, % of control at 10 µM [34]: 79%
- growth, % of control at 10 µM [35]: 84%
- growth, % of control at 10 µM [36]: 92%
- growth, % of control at 10 µM [37]: 98%
- growth, % of control at 10 µM [38]: 99%
- growth, % of control at 10 µM [39]: 81%
- growth, % of control at 10 µM [40]: 88%
- growth, % of control at 10 µM [41]: 88%
- growth, % of control at 10 µM [42]: 94%
- growth, % of control at 10 µM [43]: 77%
- growth, % of control at 10 µM [44]: 98%
- growth, % of control at 10 µM [45]: 75%
- growth, % of control at 10 µM [46]: 107%
- growth, % of control at 10 µM [47]: 88%
- growth, % of control at 10 µM [48]: 110%
- growth, % of control at 10 µM [49]: 94%
- growth, % of control at 10 µM [50]: 81%
- growth, % of control at 10 µM [51]: 65%
- growth, % of control at 10 µM [52]: 105%
- growth, % of control at 10 µM [53]: 85%
- growth, % of control at 10 µM [54]: 90%
- growth, % of control at 10 µM [55]: 71%
- growth, % of control at 10 µM [56]: 90%
- growth, % of control at 10 µM [57]: 60%
